Results on 121 compounds are retold here after a melting point compilation (Tetko et al.).

The structures appear in SMILES notation.

`NNc1ccnc2ccccc12` returned a melting point of 155 to 157 °C.

Turning to `O=S(=O)(NC1CC1)C1CCN(Cc2ccccc2)C1` (stereo unspecified), the melting point lay within 94 to 96 °C.

As to `O=C(O)C1=NN(C2CCS(=O)(=O)C2)C(=O)CC1` (stereo unspecified), the melting point lay in the range of 138 to 140 °C.

For `Nc1ccc(-c2ccccc2)nn1`, the melting point was 145 to 147 °C.

`O=S(=O)(NC1CCNCC1)c1ccc(Cl)cc1` showed a melting point of 189 to 191 °C.

On to `NCc1ccc(C(=O)NCC(N)=O)cc1`, for which the melting point was in the range of 199 to 201 °C.

Turning to `CC(=O)NC(Cc1c[nH]cn1)C(N)=O` (stereo unspecified), the melting point was 241 to 243 °C.

Regarding `CSc1nc(CCl)cc(=O)[nH]1`, the melting point lay within 176 to 178 °C.

Consider `c1c[nH]c(CN2CCNCC2)n1`, for which the melting point was in the range of 153 to 155 °C.

As to `NNC(=O)COc1ccccc1O`, the melting point lay within 152 to 154 °C.

The compound `N#Cc1ccc(CBr)c(OC(F)F)c1` returned a melting point of 80 to 82 °C.

For the compound `O=C1CN(CCOc2ccc(Br)cc2)CCN1`, the melting point fell in the range of 111 to 113 °C.

`Cc1cc([N+](=O)[O-])ccc1C#N` had a melting point of 99 to 101 °C.

In turn, `CC(Nc1ccc(Cl)cc1Cl)C(=O)O` (stereo unspecified) registered a melting point of 146 to 148 °C.

In the case of `N#Cc1ccc2c(c1)CC(=O)N2`, the melting point fell in the range of 249 to 251 °C.

Compound `Cn1cc(C(N)=O)c(C(F)F)n1` returned a melting point of 214 to 216 °C.

`O=C(O)COc1ccc(Cl)c2ccccc12` registered a melting point of 162 to 164 °C.

Consider `Nc1nc(N)nc(C2CCCC2)n1`, for which the melting point was in the range of 202 to 204 °C.

With `Cc1cc(C(=O)CCl)c(C)n1-c1ccc2c(c1)OCO2`, the melting point lay in the range of 98 to 110 °C.

As for `Oc1ccccc1SC(F)(F)F`, the melting point lay within 32 to 34 °C.

The compound `CN(C)C(=O)Nc1cccc(C(=O)O)c1` came in with a melting point of 209 to 211 °C.

`CCCC(=O)N1CCCCC1C(=O)O` (stereo unspecified) gave a melting point of 63 to 65 °C.

The compound `CC(N)c1ccc(-n2cncn2)cc1` (stereo unspecified) registered a melting point of 78 to 80 °C.

`O=C(O)CCCN1CCOC1=O` showed a melting point of 73 to 75 °C.

In the case of `O=C(O)Cn1c(=O)oc2cc([N+](=O)[O-])ccc21`, the melting point lay in the range of 214 to 216 °C.

As to `Cc1nc2ccccc2n1CC(=O)NN`, the melting point fell in the range of 233 to 235 °C.

The compound `O=C(O)c1cc(OCC(F)(F)F)c2ccccc2n1` had a melting point of 206 to 208 °C.

Compound `O=Cc1ccc([N+](=O)[O-])c(O)c1` came in with a melting point of 132 to 134 °C.

`Cc1ccc(NC(=O)NN)c(Cl)c1`: the melting point was 132 to 134 °C.

In turn, `O=C1NC(=O)C2(CCCC2)N1` returned a melting point of 140 to 142 °C.

For the compound `COc1ccc2c(c1)C=C(C(=O)O)CO2`, the melting point lay in the range of 184 to 186 °C.

`Oc1ccc(OC2CCCC2)cc1` gave a melting point of 50 to 52 °C.

Compound `COc1ccc2[nH]c(NCc3ccccc3)nc2c1` showed a melting point of 179 to 181 °C.

The compound `Cc1cc(C(=O)NCC(C)C)ccc1N` had a melting point of 91 to 93 °C.

With `O=C(NC1CC1)c1ccc(Br)cc1`, the melting point fell in the range of 151 to 153 °C.

`O=C(O)CCNC(=O)c1ccsc1` returned a melting point of 235 to 237 °C.

In turn, `Cc1csc(CC(N)=NO)n1` registered a melting point of 126 to 128 °C.

Regarding `CCc1cc(N)nc(C)n1`, the melting point lay within 149 to 151 °C.

As to `Cc1nc(NC2CC2)sc1C(=O)O`, the melting point lay in the range of 208 to 210 °C.

As for `Cc1cc(=O)n2c(C)csc2c1C#N`, the melting point was 178 to 180 °C.

Compound `CCOC(=O)c1sc2nc(N3CCOCC3)[nH]c(=O)c2c1C` showed a melting point of 296 to 298 °C.

`C=C(C#N)C(O)c1ccc([N+](=O)[O-])cc1` (stereo unspecified) displayed a melting point of 64 to 66 °C.

`NCC(O)CN1CCOCC1` (stereo unspecified) returned a melting point of 36 to 40 °C.

Turning to `COc1cc(OC)cc(C(=O)Nc2ccc(O)c(C(=O)O)c2)c1`, the melting point lay in the range of 241 to 243 °C.

With `COc1cc(C(C)=O)ccc1OC(F)F`, the melting point was 65 to 67 °C.

Regarding `Cc1cc(C(=O)O)c(C)n1-c1nccs1`, the melting point is 173 to 175 °C.

`COc1ccc(C(=O)N(C)C)cc1N`: the melting point was 119 to 121 °C.

Regarding `CC(C)(O)c1nc2ccccc2s1`, the melting point lay in the range of 89 to 91 °C.

`Cc1ccc(I)c(C(=O)O)c1` gave a melting point of 119 to 121 °C.

Compound `COc1ccc(-c2cnnc(N)n2)cc1` showed a melting point of 246 to 248 °C.

`Cc1c(C)n(Cc2ccccc2)c2ncnc(N)c12` yielded a melting point of 175 to 177 °C.

Compound `Cc1cc(C)cc(-n2nnnc2S)c1` registered a melting point of 164 to 166 °C.

The compound `Nc1ccc(N2CCCCC2)c2ccncc12` registered a melting point of 149 to 151 °C.

`O=C(O)c1cccc(S(=O)(=O)NC2CC2)c1`: the melting point is 188 to 192 °C.

For the compound `CN(C)c1cc(N)ccn1`, the melting point is 146 to 148 °C.

`O=S(=O)(Cl)c1ccc2ncccc2c1` came in with a melting point of 87 to 89 °C.

As for `O=C(O)C1CC2CCC(C1)N2C1CC1` (stereo unspecified), the melting point is 156 to 158 °C.

`O=C(O)CCS(=O)(=O)C(F)(F)F` had a melting point of 104 to 106 °C.

The compound `CC(C)Oc1ccc(S(N)(=O)=O)cc1` had a melting point of 121 to 123 °C.

The compound `CCc1cccc(Oc2ccc(F)cc2C=CC(=O)O)c1` registered a melting point of 106 to 108 °C.

`Cc1cccc(-n2c(C)cc(/C=C(\C#N)C(=O)O)c2C)c1` came in with a melting point of 75 to 77 °C.

`COC(=O)c1cccc(CS(=O)(=O)Cl)c1`: the melting point was in the range of 102 to 104 °C.

`NC(Cn1cnc2ccccc21)c1ccc(F)cc1` (stereo unspecified): the melting point lay in the range of 86 to 88 °C.

With `CCn1c(=O)c(C)nc2cc(C(=O)O)ccc21`, the melting point fell in the range of 204 to 206 °C.

In turn, `c1cc2[nH]ccc2cn1` registered a melting point of 107 to 109 °C.

Compound `Cc1ccc(Cn2nc(C)c(CCC(=O)O)c2C)cc1` yielded a melting point of 134 to 136 °C.

In turn, `CC(Cl)C(=O)Nc1ccc(C(C)(C)C)cc1` (stereo unspecified) showed a melting point of 143 to 145 °C.

The compound `Cc1cc(C)c([N+](=O)[O-])c(C)c1C(=O)O` had a melting point of 169 to 171 °C.

As to `O=C(O)C1CCN(C(=O)NC2CC2)CC1`, the melting point lay within 123 to 125 °C.

In the case of `CNS(=O)(=O)c1ccc(C(C)N)cc1` (stereo unspecified), the melting point fell in the range of 104 to 106 °C.

`CC(N)c1ccc(NS(C)(=O)=O)cc1` (stereo unspecified) returned a melting point of 142 to 144 °C.

In the case of `CCOC(=O)N1CCCC(C(=O)O)C1` (stereo unspecified), the melting point is 68 to 70 °C.

With `NCCNS(=O)(=O)c1cccc(Cl)c1`, the melting point lay in the range of 84 to 86 °C.

The compound `C=CCn1c(SCCCCCCCCCCCC)nc2scc(-c3ccccc3)c2c1=O` displayed a melting point of 84 to 86 °C.

`Nc1ncc(Cl)cc1S(N)(=O)=O` registered a melting point of 226 to 228 °C.

`CC(Cl)C(=O)NC(C)c1ccccc1` (stereo unspecified): the melting point lay within 89 to 91 °C.

Turning to `Cc1ccc(Oc2cccc(N(C)C)c2)c(N)c1`, the melting point was 64 to 66 °C.

Regarding `N#CC1(N2CCCC2)CCNCC1`, the melting point lay within 61 to 63 °C.

With `O=C(O)c1cc(-c2ccc(C(F)(F)F)cc2)no1`, the melting point is 329 to 331 °C.

In turn, `NC(=O)c1cccc(Oc2ccc(N)nc2)c1` registered a melting point of 162 to 164 °C.

Take `ClCc1sc2ccccc2c1Cl`: the melting point lay in the range of 77 to 79 °C.

For the compound `CN(C)c1ccc(C#N)c(F)c1`, the melting point fell in the range of 56 to 58 °C.

`CC(C)(C)c1nn(-c2ccccc2)cc1C(=O)O` gave a melting point of 212 to 214 °C.

Turning to `Cc1ccc2[nH]cc(C(=O)O)c2c1`, the melting point lay within 183 to 185 °C.

Take `O=C(CCl)N(C1CCCCC1)C1CCS(=O)(=O)C1` (stereo unspecified): the melting point lay within 162 to 164 °C.

In turn, `CC1CC1c1cc(N)n(-c2ccccc2)n1` (stereo unspecified) registered a melting point of 92 to 94 °C.

`CC1(O)CCc2ccccc21` (stereo unspecified) yielded a melting point of 56 to 58 °C.

With `CCc1ccc2cc(C(=O)O)[nH]c2c1`, the melting point was 178 to 180 °C.

`Nc1cccc(Cl)c1N1CCOCC1` showed a melting point of 154 to 156 °C.

For the compound `Nc1ccc(F)c(NC(=O)C2CC2)c1`, the melting point lay within 121 to 123 °C.

The compound `CC(=O)Nc1nc(C(=O)O)cs1` registered a melting point of 299 to 301 °C.

With `Cc1nn(C)c2c1N(C(=O)OC(C)(C)C)CC(C)N2` (stereo unspecified), the melting point lay in the range of 129 to 131 °C.

Turning to `CC(=O)c1ccc2c(c1)Nc1ccccc1S2`, the melting point is 180 to 185 °C.

The compound `CNc1ccccc1C(=O)NCCc1ccc(OC)cc1` had a melting point of 96 to 98 °C.

Compound `CC(NC(=O)C1CCOCC1)C(=O)O` (stereo unspecified) returned a melting point of 178 to 180 °C.

As to `CC(C)(C)c1ccc(Nc2ncccc2C(N)=S)cc1`, the melting point lay within 152 to 154 °C.

In turn, `COc1ccccc1NS(=O)(=O)c1cc(N)ccc1N1CCOCC1` displayed a melting point of 197 to 199 °C.

Compound `CCN1CCN(S(=O)(=O)c2ccc(CCC(=O)O)cc2)CC1` gave a melting point of 239 to 241 °C.

Turning to `O=C(O)c1nc(-n2cnc3ccccc32)ccc1Cl`, the melting point is 192 to 194 °C.

In the case of `Cc1c(Cl)ccc(C(=O)O)c1N`, the melting point was 208 to 210 °C.

For the compound `CCCC(C#N)NC(=O)c1ccccc1` (stereo unspecified), the melting point lay within 89 to 91 °C.

Turning to `O=C(O)c1ccc(OC2CCCC2)nc1`, the melting point lay within 165 to 167 °C.

Compound `NS(=O)(=O)CC1CC1` showed a melting point of 45 to 47 °C.

Compound `NC1CCCCC1CO` (stereo unspecified) gave a melting point of 132 to 135 °C.

In turn, `NC(=O)CCSc1ccc(F)cc1` gave a melting point of 119 to 121 °C.

The compound `CC(O)Cc1cc(F)cc(Br)c1` (stereo unspecified) displayed a melting point of 39 to 41 °C.

The compound `N#Cc1ccsc1NC(=O)CCl` came in with a melting point of 160 to 170 °C.

Turning to `CCOC(=O)c1c(N)sc(C(=O)NC)c1C`, the melting point was 151 to 153 °C.

`O=C(O)c1cc(F)ccc1I` gave a melting point of 146 to 148 °C.

As to `O=C(O)C1(c2ccccc2F)CCCC1`, the melting point lay within 106 to 108 °C.

`O=C(O)c1csc(-c2cccc(C(F)(F)F)c2)n1` showed a melting point of 200 to 202 °C.

On to `c1ccc2sc(NCCCN3CCOCC3)nc2c1`, for which the melting point is 182 to 184 °C.

For `O=C1CCC(Cc2cccc(O)c2)O1` (stereo unspecified), the melting point was 102 to 104 °C.

`O=C(O)CCc1c(-c2ccc(F)cc2)[nH]c2ccccc12` showed a melting point of 114 to 121 °C.

In the case of `O=C(O)c1cc(-c2cccc(Cl)c2)on1`, the melting point was in the range of 175 to 177 °C.

For the compound `CC(C)(C)OC(=O)c1ccc(N)cc1`, the melting point was in the range of 99 to 101 °C.

`COc1ccccc1NC1=NCC(C)S1` (stereo unspecified) registered a melting point of 92 to 97 °C.

Turning to `COc1ccc2cc(C=O)c(Cl)nc2c1`, the melting point is 84 to 86 °C.

As to `Cc1ccccc1OCCCC(=O)Nc1ccc(CN)cc1`, the melting point fell in the range of 82 to 84 °C.

Compound `O=C(O)c1cccc(S(=O)(=O)N2CCc3ccccc32)c1` displayed a melting point of 174 to 176 °C.

Compound `CC(C)C(Br)C(=O)Nc1ccccc1C(F)(F)F` (stereo unspecified) returned a melting point of 123 to 125 °C.

The melting point is the temperature, or range, at which the solid turns liquid.
